Patent US10047104B2, “Bicyclic heterocyclyl derivatives as IRAK4 inhibitors” (Aurigene Discovery Technologies Limited, priority 2014, dated 2018)
Counter-ions that a name gives are not always drawn.

biological target: T1, recombinant IRAK-4 kinase (Homo sapiens, UniProt Q9NWZ3); assay: IRAK-4 Biochemical Assay (TR-FRET); details: 5 ng IRAK-4 kinase, 100 nM Biotin Histone H3, 20 μM ATP, 30 minutes pre-incubation, read-out: IC50 values for IRAK4 activity
T1 construct: purchased Millipore, USA
T1 sequence (Q9NWZ3 1-460): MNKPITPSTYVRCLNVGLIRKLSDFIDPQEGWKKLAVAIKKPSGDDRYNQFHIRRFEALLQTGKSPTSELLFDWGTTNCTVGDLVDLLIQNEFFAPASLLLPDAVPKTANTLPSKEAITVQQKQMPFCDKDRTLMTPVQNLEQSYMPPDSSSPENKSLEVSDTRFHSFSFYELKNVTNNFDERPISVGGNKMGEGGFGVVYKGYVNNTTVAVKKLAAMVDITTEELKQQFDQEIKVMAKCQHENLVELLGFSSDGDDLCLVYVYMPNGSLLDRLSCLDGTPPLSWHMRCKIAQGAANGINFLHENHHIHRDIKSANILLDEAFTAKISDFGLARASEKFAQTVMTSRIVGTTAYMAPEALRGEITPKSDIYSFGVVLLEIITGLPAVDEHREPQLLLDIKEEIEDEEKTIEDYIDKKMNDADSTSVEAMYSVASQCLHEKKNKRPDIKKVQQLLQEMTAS
Summary of the method: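 Recombinant IRAK-4 (5 ng) pre-incubated with compound 30 min at room temperature in Tris-HCl pH 7.5 with MgCl2/MnCl2, then 100 nM biotin-histone H3 and 20 μM ATP added for 30 min. Stopped with EDTA; phospho-Ser10 read by TR-FRET (Eu-antibody/APC-streptavidin).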

IC50 [nM] | SMILES
< 50 | Cc1cc(-c2nc(C(=O)Nc3cc4oc(N5CCOCC5)nc4nc3-c3ccoc3)co2)ccn1 [Example 116, N-(5-(furan-3-yl)-2-morpholinooxazolo[4,5-b]pyridin-6-yl)-2-(2-methylpyridin-4-yl)oxazole-4-carboxamide]
< 50 | Cc1cc(-c2nc(C(=O)Nc3cc4sc(N5CCOCC5)nc4nc3N3CCC(O)CC3)co2)ccn1 [Example 84, N-(5-(4-hydroxypiperidin-1-yl)-2-morpholinothiazolo[4,5-b]pyridin-6-yl)-2-(2-methylpyridin-4-yl)oxazole-4-carboxamide]
< 50 | Cc1cc(-c2ccc(C(=O)Nc3cc4sc(N5CCOCC5)nc4nc3N3CCCCC3)o2)ccn1 [Example 90, 5-(2-methylpyridin-4-yl)-N-(2-morpholino-5-(piperidin-1-yl)thiazolo[4,5-b]pyridin-6-yl)furan-2-carboxamide]
< 50 | Cc1ccc(-c2nc(C(=O)Nc3cc4oc(N5CCCCC5)nc4nc3N3CCCCC3)co2)cn1 [Example 37, N-(2,5-di(piperidin-1-yl)oxazolo[4,5-b]pyridin-6-yl)-2-(6-methylpyridin-3-yl)oxazole-4-carboxamide]
< 50 | O=C(Nc1cc2sc(N3CCOCC3)nc2nc1N1CCCCC1)c1coc(-c2cccnc2O)n1 [Example 55, 2-(2-hydroxypyridin-3-yl)-N-(2-morpholino-5-(piperidin-1-yl)thiazolo[4,5-b]pyridin-6-yl)oxazole-4-carboxamide]
< 50 | O=C(Nc1cc2oc(N3CCOCC3)nc2nc1N1CCCCC1)c1cccc(Cl)n1 [Example 8, 6-chloro-N-(2-morpholino-5-(piperidin-1-yl)oxazolo[4,5-b]pyridin-6-yl)picolinamide]
< 50 | N[C@H]1CCN(c2nc(C(=O)Nc3cc4sc(N5CCOCC5)nc4nc3N3CCCCC3)co2)C1 [Example 66, (S)-2-(3-aminopyrrolidin-1-yl)-N-(2-morpholino-5-(piperidin-1-yl)thiazolo[4,5-b]pyridin-6-yl)oxazole-4-carboxamide]
< 50 | Cc1ccc(-c2nc(C(=O)Nc3cc4sc(N5CCOCC5)nc4nc3N3CCCCC3)co2)cn1 [Example 60, 2-(6-methylpyridin-3-yl)-N-(2-morpholino-5-(piperidin-1-yl)thiazolo[4,5-b]pyridin-6-yl)oxazole-4-carboxamide]
> 100 | COc1ccc(-c2nc(C(=O)Nc3cc4oc(N5CCOCC5)nc4nc3N3CC[C@@H](O)C3)co2)cn1 [Example 105, (R)—N-(5-(3-hydroxypyrrolidin-1-yl)-2-morpholinooxazolo[4,5-b]pyridin-6-yl)-2-(6-methoxypyridin-3-yl)oxazole-4-carboxamide]
< 50 | CC(=O)Nc1cc(-c2nc(C(=O)Nc3cc4sc(N5CCOCC5)nc4nc3N3CCCC(O)C3)co2)ccn1 (stereo not shown) [Example 127, 2-(2-acetamidopyridin-4-yl)-N-(5-(3-hydroxypiperidin-1-yl)-2-morpholinothiazolo[4,5-b]pyridin-6-yl)oxazole-4-carboxamide]
50 to 100 | O=C(Nc1cc2oc(N3CCCCC3)nc2nc1N1CCCCC1)c1cccc(-c2cn[nH]c2)n1 [Example 4, N-(2,5-di(piperidin-1-yl)oxazolo[4,5-b]pyridin-6-yl)-6-(1H-pyrazol-4-yl)picolinamide hydrochloride]
< 50 | Cc1ncccc1-c1nc(C(=O)Nc2cc3sc(N4CCCCC4)nc3nc2N2CCCCC2)co1 [Example 52, N-(2,5-di(piperidin-1-yl)thiazolo[4,5-b]pyridin-6-yl)-2-(2-methylpyridin-3-yl)oxazole-4-carboxamide hydrochloride]
< 50 | O=C(Nc1cc2oc(N3CCCCC3)nc2nc1N1CCCCC1)c1coc(-c2ccnc(Cl)c2)n1 [Example 10, 2-(2-chloropyridin-4-yl)-N-(2,5-di(piperidin-1-yl)oxazolo[4,5-b]pyridin-6-yl)oxazole-4-carboxamide]
< 50 | Cc1cc(-c2ccc(C(=O)Nc3cc4oc(N5CCOCC5)nc4nc3N3CCC(O)CC3)o2)ccn1 [Example 114, N-(5-(4-hydroxypiperidin-1-yl)-2-morpholinooxazolo[4,5-b]pyridin-6-yl)-5-(2-methylpyridin-4-yl)furan-2-carboxamide]
< 50 | Cc1cc(-c2nc(C(=O)Nc3cc4sc(N5CCOCC5)nc4nc3-c3cn[nH]c3)co2)ccn1 [Example 121, 2-(2-methylpyridin-4-yl)-N-(2-morpholino-5-(1H-pyrazol-4-yl)thiazolo[4,5-b]pyridin-6-yl)oxazole-4-carboxamide]
< 50 | O=C(Nc1cc2sc(N3CCOCC3)nc2nc1N1CCCCC1)c1cccc(-c2cn[nH]c2)n1 [Example 21, N-(2-morpholino-5-(piperidin-1-yl)thiazolo[4,5-b]pyridin-6-yl)-6-(1H-pyrazol-4-yl)picolinamide]
< 50 | Nc1ccc(-c2cccc(C(=O)Nc3cc4sc(N5CCOCC5)nc4cn3)n2)cn1 [Example 13, 6′-amino-N-(2-morpholinothiazolo[4,5-c]pyridin-6-yl)-[2,3′-bipyridine]-6-carboxamide]
< 50 | COc1ccc(-c2nc(C(=O)Nc3cc4oc(N5CCCCC5)nc4nc3N3CCCCC3)co2)cn1 [Example 26, N-(2,5-di(piperidin-1-yl)oxazolo[4,5-b]pyridin-6-yl)-2-(6-methoxypyridin-3-yl)oxazole-4-carboxamide]
< 50 | C[C@H](O)Cn1cc(-c2cccc(C(=O)Nc3cc4sc(N5CCOCC5)nc4nc3C3CC3)n2)cn1 [Example 74, (S)—N-(5-cyclopropyl-2-morpholinothiazolo[4,5-b]pyridin-6-yl)-6-(1-(2-hydroxypropyl)-1H-pyrazol-4-yl)picolinamide]
< 50 | N[C@H]1CCN(c2nc(C(=O)Nc3cc4oc(N5CCOCC5)nc4nc3C3CC3)co2)C1 [Example 47, (S)-2-(3-aminopyrrolidin-1-yl)-N-(5-cyclopropyl-2-morpholinooxazolo[4,5-b]pyridin-6-yl)oxazole-4-carboxamide]
< 50 | Cc1cc(-c2nc(C(=O)Nc3cc4sc(N5CCOCC5)nc4nc3N3CC[C@H](N)C3)co2)ccn1 [Example 67, (S)—N-(5-(3-aminopyrrolidin-1-yl)-2-morpholinothiazolo[4,5-b]pyridin-6-yl)-2-(2-methylpyridin-4-yl)oxazole-4-carboxamide]
< 50 | Nc1cc(-c2ccc(C(=O)Nc3cc4sc(N5CCOCC5)nc4nc3N3CCC(O)CC3)o2)ccn1 [Example 129, 5-(2-aminopyridin-4-yl)-N-(5-(4-hydroxypiperidin-1-yl)-2-morpholinothiazolo[4,5-b]pyridin-6-yl)furan-2-carboxamide hydrochloride]
